Reference: article PMC9570594, “Development of Novel Pyridine-Thiazole Hybrid Molecules as Potential Anticancer Agents” (Molecules, 2022)

What was measured:
[1] = tested on: NCI/ADR-RES (Ovarian Cancer); experiment: NCI five-dose SRB assay; type: cell-based; conditions: Homo sapiens, 48 h
KB3-1 cells = experiment: Fluorescent microscopy of morphological changes (Hoechst 33342/PI); type: cell-based, human; conditions: KB3-1, 5 µM, 48 h
Method: In addition, we observed multinucleated giant cells. […] The condensed chromatin, a characteristic feature of apoptosis, and dead cells were observed under the action of all studied compounds.
KB3-1 cells were seeded in the 12-well plates (CytoONE, STARLAB International GmbH, Hamburg, Germany) on glass microscopic slides and incubated overnight. Studied compounds were added to cells in the following concentrations: the compounds 3, 4 and cisplatin—5 µM/mL, doxorubicin—1 µM/mL. Cells were incubated for the next 48 h. Chromatin material of living and apoptotic cells was stained with the DNA-specific fluorescent dye Hoechst 33342 (Sigma-Aldrich, Burlington, MA, USA) and the DNA/RNA-specific fluorescent dye Propidium iodide (PI, Sigma, Burlington, MA, USA). Fluorochromes were added to cultured cells at final concentrations 0.2–0.5 μg/mL for Hoechst 33342 and 0.1 μg/mL—for PI. Images were made with a fluorescent Zeiss microscope (Carl Zeiss, Oberkochen, Germany). Magnification ×400. Microphotographs were additionally analyzed using ImagePro7N software.

HCT-15 (Colon Cancer) = experiment: NCI one-dose SRB assay; conditions: 10 μM, 48 h
Method: Tested compounds were added to the culture at a single concentration (10^−5 M) and the cultures were incubated for 48 h. End point determinations were made with a protein binding dye, Sulphorhodamine B (SRB). […] The percentage growth was evaluated spectrophotometrically versus controls not treated with test agents.

[2] = tested on: MCF-7 breast cancer cells; experiment: Annexin V-FITC/PI binding assay (flow cytometry); conditions: MCF-7, 5 µM, 24 h; control 4.4 ± 0.6%

CCOC(=O)c1ccc(NC(=O)CSC(CC(=O)c2sc(Nc3ccccn3)nc2C)c2ccccc2F)cc1 (stereo not shown) [Compound 4, Ethyl 4-[[2-[1-(2-Fluorophenyl)-3-[4-methyl-2-(2-pyridylamino)thiazol-5-yl]-3-oxopropyl]sulfanylacetyl]amino]benzoate]
GI50 [1]: 24.1 µM
morphological changes (KB3-1 cells): changes in nuclear morphology, similar to a mitotic catastrophe
Growth % (HCT-15 (Colon Cancer)): −42.04%
apoptotic cells (sum of early and late apoptotic cells) [2]: 42.7 ± 7.0%
